{"source": "patent US12291494B2", "about": "“Methods of treating fibrosis” (Nogra Pharma Limited, priority 2012, dated 2025)", "key": {"[1]": {"tested_on": "IL-13", "experiment": "DSS intestinal fibrosis study: Western blot of colon, IL-13", "type": "in vivo, mice", "details": "whole colon, OD normalized with GAPDH, expressed as percentage of control groups; DSS 189.5 ± 28.71; listed as GED", "method": "(§1) For the Western blot analysis, 0.5 cm of frozen colonic samples were homogenized in RIPA Buffer containing 50 mM Tris HCl pH 7.6, 150 mM NaCl, 1.5 mM MgCl2, 5 mM EDTA, 1% Triton-X and 10% Glycerol, supplemented with 100 mM Sodium Fluoride (NaF), 2 mM Sodium Orthovanadate (Na3VO4), 10 mM Sodium Pyrophosphate (NaPPi), 1 mM phenylmethanesulphone (PMSF) and a classical protease-inhibitor cocktail containing 10 μg/mL Leupeptin and Aprotinin.\n(§2) For each sample, 30 μg of protein was separated by PAGE and electroblotted. Nitrocellulose membranes (100% pure) were incubated (according with a specific protocol for each antibody) with primary antibodies directed against CTGF, Collagen-I and GAPDH (purchased from Abcam, Cambridge, UK; 1:1000 for 2 h at RT), diluted in 5% non-fat milk in 0.1% TBS-t. […] Optical density of target bands was determined using a computer-assisted densitometer and the ImageJ public domain software (W. S., Rasband, ImageJ, U. S. National Institutes of Health, Bethesda, MD; http://rsb.info.nih.gov/ij/, 1997-2011). Tissue levels were expressed as units of Optical Density (OD) per quantity of total proteins, normalized with internal control GAPDH and the results were expressed as percentage of control groups."}, "[2]": {"tested_on": "CTGF", "experiment": "DSS intestinal fibrosis study: Western blot of colon, CTGF", "type": "in vivo, mice", "details": "whole colon, OD normalized with GAPDH, expressed as percentage of control groups; DSS 115.1 ± 16.88; listed as GED", "method": "as §1, §2"}, "[3]": {"tested_on": "main markers of fibrosis (Collagen I-III, CTGF, SMAD 2/3, PDGF, α-SMA, and TGF-β1)", "experiment": "DSS intestinal fibrosis study: immunohistochemical analysis of colon", "type": "in vivo, mice", "method": "For the immunohistochemical analysis, tissue specimens from the colon were fixed in fresh 4% paraformaldehyde (PFA)/PBS solution for 3 h at room temperature, dehydrated in a graded ethanol series, and embedded in low-temperature-fusion paraffin. 3-μm-thick sections were incubated in methanol for 40 min and then in 3% hydrogen peroxide for 5 min. Samples were incubated overnight with specific antibodies against collagen types I-III (Abcam), connective tissue growth factor (CTGF) (Abcam), Platelet Derived Growth factor (PDGF), SMAD2/3, the main markers of fibrosis. The samples were washed for 5 min with PBS and incubated with streptavidin-biotin-peroxidase conjugated secondary antibody (Dako LSAB Corporation, cod K0675, Dako-Cytomation, Milano). After a wash in PBS for 10 min the sections were subjected to incubation with 3,3-diaminobenzidine-tetrahydrochloride for 1-3 min.\nThe specificity of immune reaction was performed omitting the primary antibodies Finally the samples were stained with hematoxylin of Mayer and observed under the Olympus BX51 Light Microscope (Olympus, Optical Co. Ltd., Tokyo, Japan)."}, "[4]": {"tested_on": "Collagen I-III", "experiment": "DSS chronic colitis (Ex. 7): Western blot, Collagen I-III", "type": "in vivo, mice", "details": "percentage of the mean of control group, normalized with GAPDH; DSS 284.4%±63.8%", "method": "as §1, with “0.5” for “For the Western blot analysis, 0.5”, “were cut and mechanically” for “were”, “mMTrisHCl” for “mM Tris HCl”, “mMNaCl,” for “mM NaCl,”, “mMphenylmethanesulphone” for “mM phenylmethanesulphone”\n30 μg of protein for each sample were separated by PAGE and electroblotted. 100% pure Nitrocellulose membranes were incubated (according with a specific protocol for each antibody) with primary antibodies directed against TGF-β1, CTGF, α-SMA, Collagen-I and GAPDH (purchased from Abcam, Cambridge, UK; 1:1000 for 2 h at RT), and IL-13 (purchased from Antibodies online; 1:1000 for 2 h at RT) diluted in 5% non fat-milk in 0.1% TBS-t. […] Optical density of target bands was determined using a computer-assisted densitometer and the ImageJ public domain software (W. S., Rasband, ImageJ, U. S. National Institutes of Health, Bethesda, MD; http://rsb.info.nih.gov/ij/, 1997-2011). Tissue levels were expressed as units of Optical Density (OD) per quantity of total proteins, normalizing with internal control GAPDH and the results were expressed as percentage of control groups."}, "[5]": {"tested_on": "C57BL/6 mice", "experiment": "DSS chronic colitis (Ex. 7): assessment of colitis course", "type": "in vivo", "method": "Chronic colitis and fibrosis were induced in mice by oral administration of 2.5% (w/v) DSS in drinking water, for three cycles (5 day DSS, 7 days of water). Animals were monitored daily for food and fluid intake and were weighed at the beginning of the study and thereafter regularly every three days.\nThe mice were randomly divided into two groups: i. DSS and ii. DSS+GED. Each group consisted of 25 mice and was compared with 10 control animals, which received only water. GED (30 mg/kg/mouse) was dissolved in a solution containing 0.5% Carboxymethylcellulose sodium salt (CMC; MW: 90,000 Da; Sigma Aldrich) and 1% Tween 80 and was administrated daily by oral gavage (100 μl/mouse). GED was administered at the beginning of second cycle.\nAnimals were observed daily for fluid intake, weight changes, and examined for signs of colitis including weight loss, diarrhoea, rectal bleeding and prolapse as well as signs of systemic inflammation such as piloerection, lethargy, and periorbital exudates."}}}
{"smiles": "COC(Cc1ccc(N)cc1)C(=O)O", "note": "(racemic) [Compound 34, (±)-2-methoxy-3-(4′-aminophenyl) propionic acid]", "values": [{"measurement": "IL-13 (Western blot)", "setting": "[1]", "value": "88.88±14.01"}, {"measurement": "CTGF (Western blot)", "setting": "[2]", "value": "55.75±17.53"}, {"measurement": "main markers of fibrosis (Collagen I-III, CTGF, SMAD 2/3, PDGF, α-SMA, TGF-β1) by IHC", "setting": "[3]; colon of DSS mice vs colitic mice receiving vehicle, FIG. 9A-9E", "value": "a reduction of the main markers of fibrosis"}, {"measurement": "collagen staining (immunohistochemical analysis)", "setting": "[3]; colon of DSS mice, FIG. 9A", "value": "decrease in the collagen staining"}, {"measurement": "Collagen I-III expression level (Western blot)", "setting": "[4]", "value": "90.75%±19.9%"}, {"measurement": "Body weight", "setting": "[5]; chronic DSS colitis, GED 30 mg/kg oral daily, mean ± SEM", "value": "25.132 ± 0.458 ^"}, {"measurement": "Mortality", "setting": "[5]; chronic DSS colitis, GED 30 mg/kg oral gavage daily, DSS 2", "value": 0, "unit": "n. mice"}, {"measurement": "mice with systemic manifestations (piloerection, periorbital exudates and/or lethargy)", "setting": "[5]; seventh day of DSS oral administration, DSS mice 40%", "value": 30, "unit": "%"}, {"measurement": "mice with moderate to severe diarrhea", "setting": "[5]; seventh day of DSS oral administration, DSS mice 70%", "value": 50, "unit": "%"}]}
